Measurements from patent US12077503B2, “Substituted cyclic amides and their use as herbicides” (FMC CORPORATION, priority 2015, dated 2024).

Experiments:
Format in all cases: in vivo
corn (Zea mays) [1] = experiment: Test G Post-Emergence Protocol; conditions: Zea mays, post-emergence, 312 h
In short: (§1)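 Values are percent visual injury at 13 days after treatment (0 none, 100 total). Treatment was a post-emergence spray at 15.625, 62.5 or 250 g/ha on 8-day-old pot plants kept at 24/16 °C.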

[2] = tested on: velvetleaf (Abutilon theophrasti); experiment: Test G Post-Emergence Protocol; conditions: Abutilon theophrasti, post-emergence, 312 h
In short: as §1

[3] = tested on: giant foxtail (Setaria faberi); experiment: Test G Post-Emergence Protocol; conditions: Setaria faberi, post-emergence, 312 h
In short: as §1

[4] = tested on: redroot pigweed (Amaranthus retroflexus); experiment: Test G Post-Emergence Protocol; conditions: Amaranthus retroflexus, post-emergence, 312 h
In short: as §1

[5] = tested on: barnyardgrass (Echinochloa crus-galli); experiment: Test G Post-Emergence Protocol; conditions: Echinochloa crus-galli, post-emergence, 312 h
In short: as §1

[6] = tested on: ivy-leaved morning glory (Ipomoea hederacea); experiment: Test G Post-Emergence Protocol; conditions: Ipomoea, post-emergence, 312 h
In short: as §1

corn (Zea mays) [7] = experiment: Test G Pre-Emergence Protocol; conditions: Zea mays, pre-emergence, 312 h, evaluated after 13 days
In short: (§2)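 One day after sowing, pots are treated with a spray of test compound formulated in acetone/water 50:50 plus 0.5% Tween 20, giving 15.625, 62.5 or 250 g/ha. Evaluation on a 0–100 damage scale follows 13 days of glasshouse growth.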

[8] = tested on: velvetleaf (Abutilon theophrasti); experiment: Test G Pre-Emergence Protocol; conditions: Abutilon theophrasti, pre-emergence, 312 h, evaluated after 13 days
In short: as §2

[9] = tested on: giant foxtail (Setaria faberi); experiment: Test G Pre-Emergence Protocol; conditions: Setaria faberi, pre-emergence, 312 h, evaluated after 13 days
In short: as §2

[10] = tested on: redroot pigweed (Amaranthus retroflexus); experiment: Test G Pre-Emergence Protocol; conditions: Amaranthus retroflexus, pre-emergence, 312 h, evaluated after 13 days
In short: as §2

[11] = tested on: barnyardgrass (Echinochloa crus-galli); experiment: Test G Pre-Emergence Protocol; conditions: Echinochloa crus-galli, pre-emergence, 312 h, evaluated after 13 days
In short: as §2

[12] = tested on: ivy-leaved morning glory (Ipomoea hederacea); experiment: Test G Pre-Emergence Protocol; conditions: Ipomoea, pre-emergence, 312 h, evaluated after 13 days
In short: as §2

CN1C[C@@H](c2ccc(C(F)(F)F)cc2)[C@H](C(=O)Nc2cc(C(F)(F)F)n(C)n2)C1=O (racemic) [Compound 1512]
0%: plant injury at 15.625 g/ha (corn (Zea mays) [1]; 15.625 g ai/ha, evaluated after 13 days (100=total damage to plant; 0=no damage to plant), read-out: Corn damage rating) | plant injury at 62.5 g/ha (corn (Zea mays) [1]; 62.5 g ai/ha, evaluated after 13 days, read-out: Corn damage rating (100=total damage to plant; 0=no damage to plant)) | plant injury at 250 g/ha (corn (Zea mays) [1]; 250 g ai/ha, evaluated after 13 days, read-out: damage to plant, Corn (100=total damage to plant; 0=no damage to plant)) | pest or weed control at 15.625 g/ha ([2]; 15.625 g ai/ha, evaluated after 13 days (100=total damage to plant; 0=no damage to plant), read-out: Velvetleaf damage rating) | pest or weed control at 62.5 g/ha ([2]; 62.5 g ai/ha, evaluated after 13 days, read-out: Velvetleaf damage rating (100=total damage to plant; 0=no damage to plant)) | pest or weed control at 250 g/ha ([2]; 250 g ai/ha, evaluated after 13 days, read-out: damage to plant, Velvetleaf (100=total damage to plant; 0=no damage to plant)) | pest or weed control at 15.625 g/ha ([3]; 15.625 g ai/ha, evaluated after 13 days (100=total damage to plant; 0=no damage to plant), read-out: Foxtail, Giant damage rating) | pest or weed control at 62.5 g/ha ([3]; 62.5 g ai/ha, evaluated after 13 days, read-out: Foxtail, Giant damage rating (100=total damage to plant; 0=no damage to plant)) | pest or weed control at 250 g/ha ([3]; 250 g ai/ha, evaluated after 13 days, read-out: damage to plant, Foxtail, Giant (100=total damage to plant; 0=no damage to plant)) | pest or weed control at 15.625 g/ha ([4]; 15.625 g ai/ha, evaluated after 13 days (100=total damage to plant; 0=no damage to plant), read-out: Pigweed, Redroot damage rating) | pest or weed control at 62.5 g/ha ([4]; 62.5 g ai/ha, evaluated after 13 days, read-out: Pigweed, Redroot damage rating (100=total damage to plant; 0=no damage to plant)) | pest or weed control at 250 g/ha ([4]; 250 g ai/ha, evaluated after 13 days, read-out: damage to plant, Pigweed, Redroot (100=total damage to plant; 0=no damage to plant)) | pest or weed control at 15.625 g/ha ([5]; 15.625 g ai/ha, evaluated after 13 days (100=total damage to plant; 0=no damage to plant), read-out: Barnyardgrass damage rating) | pest or weed control at 62.5 g/ha ([5]; 62.5 g ai/ha, evaluated after 13 days, read-out: Barnyardgrass damage rating (100=total damage to plant; 0=no damage to plant)) | pest or weed control at 250 g/ha ([5]; 250 g ai/ha, evaluated after 13 days, read-out: damage to plant, Barnyardgrass (100=total damage to plant; 0=no damage to plant)) | pest or weed control at 15.625 g/ha ([6]; 15.625 g ai/ha, evaluated after 13 days (100=total damage to plant; 0=no damage to plant), read-out: Morningglory, Ivy-leaved damage rating) | pest or weed control at 62.5 g/ha ([6]; 62.5 g ai/ha, evaluated after 13 days, read-out: Morningglory, Ivy-leaved damage rating (100=total damage to plant; 0=no damage to plant)) | pest or weed control at 250 g/ha ([6]; 250 g ai/ha, evaluated after 13 days, read-out: damage to plant, Morningglory, Ivy-leaved (100=total damage to plant; 0=no damage to plant)) | plant injury at 15.625 g/ha (corn (Zea mays) [7]; 15.625 g ai/ha, read-out: Corn damage rating (100=total damage to plant; 0=no damage to plant)) | plant injury at 62.5 g/ha (corn (Zea mays) [7]; 62.5 g ai/ha, 100=total damage to plant, 0=no damage to plant, read-out: plant damage rating, Corn) | plant injury at 250 g/ha (corn (Zea mays) [7]; 250 g ai/ha, read-out: Corn damage rating (100=total damage to plant; 0=no damage to plant)) | pest or weed control at 15.625 g/ha ([8]; 15.625 g ai/ha, read-out: Velvetleaf damage rating (100=total damage to plant; 0=no damage to plant)) | pest or weed control at 62.5 g/ha ([8]; 62.5 g ai/ha, 100=total damage to plant, 0=no damage to plant, read-out: plant damage rating, Velvetleaf) | pest or weed control at 250 g/ha ([8]; 250 g ai/ha, read-out: Velvetleaf damage rating (100=total damage to plant; 0=no damage to plant)) | pest or weed control at 15.625 g/ha ([9]; 15.625 g ai/ha, read-out: Foxtail, Giant damage rating (100=total damage to plant; 0=no damage to plant)) | pest or weed control at 62.5 g/ha ([9]; 62.5 g ai/ha, 100=total damage to plant, 0=no damage to plant, read-out: plant damage rating, Foxtail, Giant) | pest or weed control at 250 g/ha ([9]; 250 g ai/ha, read-out: Foxtail, Giant damage rating (100=total damage to plant; 0=no damage to plant)) | pest or weed control at 15.625 g/ha ([10]; 15.625 g ai/ha, read-out: Pigweed, Redroot damage rating (100=total damage to plant; 0=no damage to plant)) | pest or weed control at 62.5 g/ha ([10]; 62.5 g ai/ha, 100=total damage to plant, 0=no damage to plant, read-out: plant damage rating, Pigweed, Redroot) | pest or weed control at 250 g/ha ([10]; 250 g ai/ha, read-out: Pigweed, Redroot damage rating (100=total damage to plant; 0=no damage to plant)) | pest or weed control at 15.625 g/ha ([11]; 15.625 g ai/ha, read-out: Barnyard grass damage rating (100=total damage to plant; 0=no damage to plant)) | pest or weed control at 62.5 g/ha ([11]; 62.5 g ai/ha, 100=total damage to plant, 0=no damage to plant, read-out: plant damage rating, Barnyardgrass) | pest or weed control at 250 g/ha ([11]; 250 g ai/ha, read-out: Barnyardgrass damage rating (100=total damage to plant; 0=no damage to plant)) | pest or weed control at 15.625 g/ha ([12]; 15.625 g ai/ha, read-out: Morning-glory, Ivy-leaved damage rating (100=total damage to plant; 0=no damage to plant)) | pest or weed control at 62.5 g/ha ([12]; 62.5 g ai/ha, 100=total damage to plant, 0=no damage to plant, read-out: plant damage rating, Morningglory, Ivy-leaved) | pest or weed control at 250 g/ha ([12]; 250 g ai/ha, read-out: Morningglory, Ivy-leaved damage rating (100=total damage to plant; 0=no damage to plant))
